# Like-named read-outs stand apart in the source and are kept apart here.
# Key:
# [1] = system: progressive or recurrent brain cancers; test: Tumor response by MRI (RANO criteria), PFS, survival, cycles received; type: in vivo, human
# Experimental: Tumor response was assessed by MRI after every 2 treatment cycles, or earlier if clinically indicated, according to the Response Assessment in Neuro-Oncology criteria.
# [2] = read-out: Maximum concentration (Cmax) of afatinib in plasma; single dose of 40 mg, patients with solid tumors; cited from earlier work
# [3] = system: U87EGFRvIII human glioblastoma cells; settings: cited from earlier work
# [4] = daily afatinib, recurrent glioblastoma; read-out: Cmax in plasma; cited from earlier work
# [5] = system: U87MG human glioblastoma cells; settings: cited from earlier work
# [6] = mouse, 30 mg/kg afatinib, CSF from the dura through the atlanto-occipital membrane; cited from earlier work
# [7] = Afatinib plasma concentration, HPLC-MS/MS, phase I pulsatile afatinib; type: in vivo, human
# Experimental: (§1) Pharmacokinetic (PK) data were obtained to guide optimal dose of afatinib. The time of maximum plasma concentration is reported between 2 and 5 hours after dosing.[18],[19]
# [8] = Afatinib CSF concentration (lumbar puncture), HPLC-MS/MS; type: in vivo; settings: human, oral
# Experimental: as §1
# [9] = cited from earlier work
# [10] = 21 patients evaluable for efficacy
# [11] = dose cohort 1 (80 mg every 4 days)
# [12] = dose cohort 1 (80 mg every 4 days), 2 response-evaluable
# [13] = dose cohort 2 (120 mg every 4 days)
# [14] = dose cohort 2 (120 mg every 4 days), 3 response-evaluable
# [15] = dose cohort 3 (180 mg every 4 days)
# [16] = dose cohort 3 (180 mg every 4 days), 6 response-evaluable
# [17] = dose cohort 4 (280 mg every 7 days), 10 response-evaluable
smiles,measurement,setting,value
CN(C)C/C=C/C(=O)Nc1cc2c(Nc3ccc(F)c(Cl)c3)ncnc2cc1O[C@H]1CCOC1 [Afatinib],"Disease stabilization, % of patients",[1]; [10],14.3%
same,"Disease stabilization, No. of patients",[1]; [10],3
same,"Partial response (RANO), % of patients",[1]; [10],9.5%
same,"Partial response (RANO), No. of patients",[1]; [10],2
same,"Progressive disease, No. of patients",[1]; [10],Sixteen
same,Median overall survival,[1]; all patients,10.3 months
same,"PFS, Median",[1]; [11],44 days
same,"PFS, Range",[1]; [11],32 to 56 days
same,"Best Response CR, No. of patients",[1]; [12],0
same,"Best Response PD, No. of patients",[1]; [12],2
same,"Best Response PR, No. of patients",[1]; [12],0
same,"Best Response SD, No. of patients",[1]; [12],0
same,"PFS, Median",[1]; [13],42 days
same,"PFS, Range",[1]; [13],29 to 106 days
same,"Best Response CR, No. of patients",[1]; [14],0
same,"Best Response PD, No. of patients",[1]; [14],2
same,"Best Response PR, No. of patients",[1]; [14],1
same,"Best Response SD, No. of patients",[1]; [14],0
same,"PFS, Median",[1]; [15],78 days
same,"PFS, Range",[1]; [15],20 to 261 days
same,"Best Response CR, No. of patients",[1]; [16],0
same,"Best Response PD, No. of patients",[1]; [16],4
same,"Best Response PR, No. of patients",[1]; [16],0
same,"Best Response SD, No. of patients",[1]; [16],2
same,"PFS, Median",[1]; dose cohort 4 (280 mg every 7 days),56 days
same,"Best Response CR, No. of patients",[1]; [17],0
same,"Best Response PD, No. of patients",[1]; [17],8
same,"Best Response PR, No. of patients",[1]; [17],1
same,"Best Response SD, No. of patients",[1]; [17],1
same,Median overall survival,[1]; glioblastoma,5.2 months
same,Median progression-free survival,[1]; overall,2.0 months
same,Progression-free survival rate at 6 months (PFS6),[1]; patients with glioblastoma (n = 16),0%
same,Cmax,[2],~10 nM
same,Inhibitory concentration of 25% (IC25),[3],~1000 nM
same,Cmax,[4],~24 nM
same,Inhibitory concentration of 25% (IC25),[5],approximately 2 μM
same,Time of peak concentration in CSF after dosing,[6],one
same,"Highest afatinib level in blood, one patient",[7]; 120 mg every 4 days cohort,approximately 0.8 μM
same,Cmax,"[7]; human, plasma, 3 hours (± 2 hours) post dosing, oral, all cohorts",< 392 ng/mL
same,Pre-dose (trough) afatinib levels in blood,"[7]; pulse dosing, all cohorts",under 50 nM
same,Afatinib concentration in blood,"[7]; subject 002, Cohort 1: 80 mg q4d, post dosing, C1D8",12.323 ng/mL
same,Afatinib concentration in blood,"[7]; subject 002, Cohort 1: 80 mg q4d, pre dosing, C1D8",8.751 ng/mL
same,Afatinib concentration in blood,"[7]; subject 002, Cohort 1: 80 mg q4d, pre dosing, C2D1",11.693 ng/mL
same,Afatinib concentration in blood,"[7]; subject 002, Cohort 1: 80 mg q4d, pre dosing, EOT (EoC2)",<LLOQ (EoC2)
same,Afatinib concentration in blood,"[7]; subject 003, Cohort 1: 80 mg q4d, post dosing, C1D22",30.096 ng/mL
same,Afatinib concentration in blood,"[7]; subject 003, Cohort 1: 80 mg q4d, pre dosing, C1D22",17.318 ng/mL
same,Afatinib concentration in blood,"[7]; subject 004, Cohort 1: 80 mg q4d, pre dosing, C2D1",<LLOQ
same,Afatinib concentration in blood,"[7]; subject 005, Cohort 2: 120 mg q4d, post dosing, C1D15",37.68 ng/mL
same,Afatinib concentration in blood,"[7]; subject 005, Cohort 2: 120 mg q4d, pre dosing, C2D1",7.18 ng/mL
same,Afatinib concentration in blood,"[7]; subject 006, Cohort 2: 120 mg q4d, post dosing, C1D15",66.156 ng/mL
same,Afatinib concentration in blood,"[7]; subject 006, Cohort 2: 120 mg q4d, pre dosing, C1D15",<LLOQ
same,Afatinib concentration in blood,"[7]; subject 006, Cohort 2: 120 mg q4d, pre dosing, C2D1",10.104 ng/mL
same,Afatinib concentration in blood,"[7]; subject 006, Cohort 2: 120 mg q4d, pre dosing, C3D1",<LLOQ
same,Afatinib concentration in blood,"[7]; subject 006, Cohort 2: 120 mg q4d, pre dosing, C4D1",11.223 ng/mL
same,Afatinib concentration in blood,"[7]; subject 008, Cohort 2: 120 mg q4d, post dosing, C1D8",392.01 ng/mL
same,Afatinib concentration in blood,"[7]; subject 008, Cohort 2: 120 mg q4d, pre dosing, C1D8",22.243 ng/mL
same,Afatinib concentration in blood,"[7]; subject 010, Cohort 3: 180 mg q4d, post dosing, C1D22",324.265 ng/mL
same,Afatinib concentration in blood,"[7]; subject 010, Cohort 3: 180 mg q4d, pre dosing, C1D22",43.226 ng/mL
same,Afatinib concentration in blood,"[7]; subject 011, Cohort 3: 180 mg q4d, post dosing, C1D8",11.705 ng/mL
same,Afatinib concentration in blood,"[7]; subject 011, Cohort 3: 180 mg q4d, pre dosing, C1D8",11.616 ng/mL
same,Afatinib concentration in blood,"[7]; subject 011, Cohort 3: 180 mg q4d, pre dosing, C3D1",19.265 ng/mL
same,Afatinib concentration in blood,"[7]; subject 012, Cohort 3: 180 mg q4d, post dosing, C1D15",96.354 ng/mL
same,Afatinib concentration in blood,"[7]; subject 012, Cohort 3: 180 mg q4d, post dosing, C2D1",85.834 ng/mL
same,Afatinib concentration in blood,"[7]; subject 012, Cohort 3: 180 mg q4d, pre dosing, C1D15",<LLOQ
same,Afatinib concentration in blood,"[7]; subject 012, Cohort 3: 180 mg q4d, pre dosing, C2D1",<LLOQ
same,Afatinib concentration in blood,"[7]; subject 012, Cohort 3: 180 mg q4d, pre dosing, EOT (EoC4)",6.402 (EoC4) ng/mL
same,Afatinib concentration in blood,"[7]; subject 013, Cohort 3: 180 mg q4d, pre dosing, C1D15",10.374 ng/mL
same,Afatinib concentration in blood,"[7]; subject 013, Cohort 3: 180 mg q4d, pre dosing, C2D1",41.964 ng/mL
same,Afatinib concentration in blood,"[7]; subject 013, Cohort 3: 180 mg q4d, pre dosing, C4D1",6.787 ng/mL
same,Afatinib concentration in blood,"[7]; subject 014, Expansion Cohort 3: 180 mg q4d, post dosing, C1D8",60.605 ng/mL
same,Afatinib concentration in blood,"[7]; subject 014, Expansion Cohort 3: 180 mg q4d, pre dosing, C1D8",11.442 ng/mL
same,Afatinib concentration in blood,"[7]; subject 015, Cohort 4: 280 mg q7d, post dosing, C1D15",40.694 ng/mL
same,Afatinib concentration in blood,"[7]; subject 015, Cohort 4: 280 mg q7d, pre dosing, EOT (EoC1)",<LLOQ (EoC1)
same,Afatinib concentration in blood,"[7]; subject 016, Cohort 4: 280 mg q7d, post dosing, C1D15",205.634 ng/mL
same,Afatinib concentration in blood,"[7]; subject 017, Expansion Cohort 3: 180 mg q4d, post dosing, C1D15",89.884 ng/mL
same,Afatinib concentration in blood,"[7]; subject 017, Expansion Cohort 3: 180 mg q4d, pre dosing, C1D15",10.425 ng/mL
same,Afatinib concentration in blood,"[7]; subject 017, Expansion Cohort 3: 180 mg q4d, pre dosing, C2D1",5.708 ng/mL
same,Afatinib concentration in blood,"[7]; subject 017, Expansion Cohort 3: 180 mg q4d, pre dosing, C3D1",<LLOQ
same,Afatinib concentration in blood,"[7]; subject 017, Expansion Cohort 3: 180 mg q4d, pre dosing, C4D1",6.264 ng/mL
same,Afatinib concentration in blood,"[7]; subject 018, Cohort 4: 280 mg q7d, post dosing, C1D15",322.557 ng/mL
same,Afatinib concentration in blood,"[7]; subject 018, Cohort 4: 280 mg q7d, post dosing, C2D1",340.709 ng/mL
same,Afatinib concentration in blood,"[7]; subject 018, Cohort 4: 280 mg q7d, pre dosing, C1D15",9.603 ng/mL
same,Afatinib concentration in blood,"[7]; subject 018, Cohort 4: 280 mg q7d, pre dosing, C2D1",22.084 ng/mL
same,Afatinib concentration in blood,"[7]; subject 018, Cohort 4: 280 mg q7d, pre dosing, C3D1",14.169 ng/mL
same,Afatinib concentration in blood,"[7]; subject 018, Cohort 4: 280 mg q7d, pre dosing, C4D1",11.731 ng/mL
same,Afatinib concentration in blood,"[7]; subject 018, Cohort 4: 280 mg q7d, pre dosing, EOT (EoC4)",10.379 (EoC4) ng/mL
same,Afatinib concentration in blood,"[7]; subject 019, Expansion Cohort 4: 280 mg q7d, post dosing, C1D8",153.973 ng/mL
same,Afatinib concentration in blood,"[7]; subject 019, Expansion Cohort 4: 280 mg q7d, pre dosing, C1D8",9.857 ng/mL
same,Afatinib concentration in blood,"[7]; subject 019, Expansion Cohort 4: 280 mg q7d, pre dosing, C2D1",11.805 ng/mL
same,Afatinib concentration in blood,"[7]; subject 019, Expansion Cohort 4: 280 mg q7d, pre dosing, EOT (EoC2)",<LLOQ (EoC2)
same,Afatinib concentration in blood,"[7]; subject 020, Expansion Cohort 4: 280 mg q7d, post dosing, C1D15",110.625 ng/mL
same,Afatinib concentration in blood,"[7]; subject 020, Expansion Cohort 4: 280 mg q7d, pre dosing, C1D15",8.586 ng/mL
same,Afatinib concentration in blood,"[7]; subject 020, Expansion Cohort 4: 280 mg q7d, pre dosing, C2D1",11.278 ng/mL
same,Afatinib concentration in blood,"[7]; subject 021, Expansion Cohort 4: 280 mg q7d, post dosing, C1D15",40.352 ng/mL
same,Afatinib concentration in blood,"[7]; subject 021, Expansion Cohort 4: 280 mg q7d, pre dosing, C1D15",5.966 ng/mL
same,Afatinib concentration in blood,"[7]; subject 021, Expansion Cohort 4: 280 mg q7d, pre dosing, C2D1",<LLOQ
same,Afatinib concentration in blood,"[7]; subject 021, Expansion Cohort 4: 280 mg q7d, pre dosing, EOT (C2D15)",<LLOQ (C2D15)
same,concentration at 3 h,"[8]; 8 patients, approximately 3 hours after dosing in the first cycle, below lower limit of quantification",< 1.01 ng/mL
same,concentration at 3 h,"[8]; not detected, lower limit of quantification",< 2.09 nM
same,Median concentration of afatinib in CSF,"[9]; afatinib 40 mg daily, 11 patients, leptomeningeal metastases from NSCLC, steady-state day 8",2.9 nM
same,Afatinib concentration in the CSF,"[9]; daily afatinib, case of leptomeningeal carcinomatosis",0.05 nM

# — paper PMC11046985 (Neuro-Oncology Advances, 2024)
